Measured values taken from patent publication US20220227728A1, “Microtubule-associated protein Tau imaging compounds for Alzheimer's disease and precursors thereof” (priority 2021, published 2022).
“Also recorded” adds a separate entry of the source.

System: microtubule-associated protein Tau
Test: nano PET/CT imaging in P301L gene transgenic mice and control mice
Type: in vivo
Details: 0.46 mCi by tail vein, 30 minutes of distribution
Text: FIG. 3 is an image of the microtubule-associated protein Tau compound 29 of the present invention in P301L gene transgenic mice and control mice using positron emission tomography (nano PET/CT) analysis, in which P301L gene transgenic mice (source: United States JACKSON Research Center) refers to the mutation of proline to leucine at codon 301 of the encoded microtubule-associated protein Tau. These types of mutations can accelerate the formation of neurofibrillary tangles. P301L gene transgenic mice and control mice were injected through the tail vein with 0.46 millicuries (mCi) of compound 29 of the present invention, and after 30 minutes of distribution, radiography was performed on the mice using a positron emission tomography scanner (BIOSCAN).
0.46 mCi of compound 29 was injected into P301L gene transgenic mice and control mice, and after 30 minutes of distribution nano-PET/CT was used for contrast imaging.

CC([18F])COc1ccc2cc(-n3cc4ccccc4c3)ncc2c1 (stereo not shown) [compound 29, [18F] 7-(2-fluoropropoxy)-3-(2H-isoindol-2-yl) isoquinoline]
drug accumulation (absorption) in the brain of P301L gene transgenic mice versus control mice: significantly higher than that of the control mice; also recorded: significantly greater than that of control mice
